Data on 21 compounds can be found in ChEMBL document CHEMBL1125711, “Flavins as potential antimalarials. 2. 3-Methyl-10-(substituted-phenyl) flavins” (J Med Chem, 1991).

Holding throughout (type): functional
Test [1] concerns Mus musculus. Kind of test: Antimalarial activity was evaluated against Plasmodium vinckei vinckei V52 after intraperitoneal administration at dose 40 mg/kg.
For test [2], the system named is Mus musculus. The test can be described thus: Antimalarial activity was evaluated against Plasmodium vinckei vinckei V52 after intraperitoneal administration at dose 25 mg/kg.
The subject of test [3] is Mus musculus. The test can be described thus: Antimalarial activity was evaluated against Plasmodium vinckei V52 after intraperitoneal administration at dose 15 mg/kg.
Test [4] deals with Plasmodium vinckei vinckei. The test can be described thus: Increase in mean survival days of Plasmodium inoculated mice (Mus musculus) after 70 mg/Kg intraperitoneal dose.
In test [5] the test system is Mus musculus. The test can be described thus: Antimalarial activity was evaluated against Plasmodium vinckei V52 after intraperitoneal administration at dose 70 mg/kg.
Test [6] relates to Plasmodium vinckei vinckei. The test can be described thus: Antimalarial activity against Plasmodium vinckei V52 after 20 mg/kg intraperitoneal dose.
Test [7] has as its system Plasmodium vinckei vinckei. The test can be described thus: Antimalarial activity against Plasmodium vinckei V52 on 30 mg/kg intraperitoneal dose.
Test [8] is filed under the species Mus musculus. Kind of test: Effective dose required to obtain a parasitaemia of 40% 48 hours after treatment in mice.
The subject of test [9] is Plasmodium vinckei vinckei. The test can be described thus: Antimalarial activity against Plasmodium vinckei V52 on 10 mg/kg intraperitoneal dose.
Test [10] deals with Mus musculus. Kind of test: Increase in mean survival days was determined in mice after ip administration of 10 mg/kg. Conditions: route intraperitoneal.
In test [11] the test system is Mus musculus. The test can be described thus: Antimalarial activity was evaluated against Plasmodium vinckei V52 after intraperitoneal administration at dose 50 mg/kg.
Test [12] concerns Mus musculus. Kind of test: Increase in mean survival days was determined in mice after ip administration of 50 mg/kg. Conditions: route intraperitoneal.
Test [13] deals with Mus musculus. Kind of test: Increase in mean survival days was determined in mice after ip administration of 30 mg/kg. Conditions: route intraperitoneal.
Test [14] deals with Plasmodium vinckei vinckei. Kind of test: Antimalarial activity against Plasmodium vinckei V52 on 70 mg/kg intraperitoneal dose.
In test [15] the test system is Mus musculus. Kind of test: Increase in mean survival days was determined in mice after ip administration of 20 mg/kg. Conditions: route intraperitoneal.
Test [16] has as its system Mus musculus. Kind of test: Increase in mean survival days was determined in mice after ip administration of 30 mg/kg; toxic. Conditions: route intraperitoneal.
For test [17], the system named is Mus musculus. Kind of test: Increase in mean survival days was determined in mice after ip administration of 70 mg/kg; toxic. Conditions: route intraperitoneal.
The test system of test [18] is Mus musculus. The test can be described thus: Increase in mean survival days was determined in mice after ip administration of 25 mg/kg; toxic. Conditions: route intraperitoneal.
Test [19] deals with Mus musculus. Kind of test: Increase in mean survival days was determined in mice after ip administration of 15 mg/kg. Conditions: route intraperitoneal.
Test [20] deals with Mus musculus. Kind of test: Antimalarial activity was evaluated against Plasmodium vinckei V52 after intraperitoneal administration at dose 60 mg/kg.
The subject of test [21] is Mus musculus. Kind of test: Antimalarial activity was evaluated against Plasmodium vinckei vinckei V52 after intraperitoneal administration at dose 50 mg/kg.
Test [22] deals with Mus musculus. The test can be described thus: Antimalarial activity was evaluated against Plasmodium vinckei V52 after intraperitoneal administration at dose 25 mg/kg.
For test [23], the system named is Mus musculus. Kind of test: Increase in mean survival days was determined in mice after ip administration of 60 mg/kg. Conditions: route intraperitoneal.
Test [24] concerns Mus musculus. The test can be described thus: Antimalarial activity was evaluated against Plasmodium vinckei V52 after intraperitoneal administration at dose 10 mg/kg.
For test [25], the system named is Mus musculus. Kind of test: Antimalarial activity was evaluated against Plasmodium vinckei V52 after intraperitoneal administration at dose 30 mg/kg.

With `Cn1c(=O)nc2n(-c3cc(Cl)cc(Cl)c3)c3ccccc3nc-2c1=O`, the Cured is recorded as 100% in [1]; 100% in test [2]; 100% in test [3]; 60% in test [5]; 100% in [6]; 100% in [7]. Further, the Cured in test [9] was determined as 100%. Besides, the Mean survival days in [4] worked out at 16.5 days. In test [8], this compound gave an ED40 of 40.2 µmol/kg.

As to `Cc1ccc(-n2c3nc(=O)n(C)c(=O)c-3nc3ccccc32)cc1`, the Mean survival days in [10] is 0 days; in test [4] it was 0 days; in test [12], 0.3 days; in test [13], 0.2 days. The Cured in test [11], in test [5], in [7] and in test [9] was 0% each time.

Regarding `CSc1cccc(-n2c3nc(=O)n(C)c(=O)c-3nc3ccccc32)c1`, the Cured in [14], in test [6], in test [7] and in test [9] was 0% throughout. Moreover, the Mean survival days in [15] turned out to be 0 days; in [10], 0.2 days; in test [4], 0 days; in [13], 0 days.

`CSc1ccc(-n2c3nc(=O)n(C)c(=O)c-3nc3ccccc32)cc1`: the Cured in [14], in test [6], in test [7] and in test [9] was 0% each time. Further, the Mean survival days in [15] was found to be 0.5 days; in test [10], 0.2 days; in [4] it was 0 days; in test [13], 0.5 days.

For `Cn1c(=O)nc2n(-c3ccc(Cl)cc3F)c3ccccc3nc-2c1=O`, the Mean survival days is -2 days in test [16], 4 days in test [15] and 1 days in test [10]. The Cured in [6], in test [7] and in test [9] was 0% in each case.

Turning to `CCc1ccc(-n2c3nc(=O)n(C)c(=O)c-3nc3ccccc32)cc1`, the Cured in test [14], in test [6], in test [7] and in [9] was 0% in each case. Further, the Mean survival days in [15] is 0.3 days; in [10], 0.2 days; in test [4], -0.4 days; in [13], 0 days. Further, the ED40 in test [8] was 281 µmol/kg.

In the case of `Cn1c(=O)nc2n(-c3ccc(C(=O)O)cc3)c3ccccc3nc-2c1=O`, the Cured in [14], in test [7] and in test [9] was 0% each time. For the same compound, the Mean survival days in test [10] was 0 days; in test [4] it was -0.2 days; in test [13], 0.2 days.

Consider `Cn1c(=O)nc2n(-c3ccc(F)c(F)c3)c3ccccc3nc-2c1=O`, for which the Cured in test [14], in test [6], in test [7] and in [9] was 0% each time. Besides, the Mean survival days is -0.5 days in test [15], 0 days in test [10], -1 days in test [17] and 0 days in test [13].

Consider `Cc1ccc(-n2c3nc(=O)n(C)c(=O)c-3nc3ccccc32)cc1Cl`, for which the Cured in [14], in [6] and in test [9] was 0% throughout. Further, the Mean survival days in [10], in test [4] and in [13] was 0 days each time. The compound further displayed an ED40 in [8] of 456 µmol/kg.

With `Cn1c(=O)nc2n(-c3ccccc3Cl)c3ccccc3nc-2c1=O`, the Mean survival days in [16] is -0.3 days; in [10] it was 0 days; in test [17], -2 days. The Cured in [14], in test [7] and in test [9] was 0% each time.

For `Cn1c(=O)nc2n(-c3ccc(Cl)cc3Cl)c3ccccc3nc-2c1=O`, the Mean survival days was -1 days in test [16], 1.7 days in test [10], -1.2 days in test [18] and 0.5 days in test [19]. Besides, the Cured in test [2], in test [3], in test [7] and in [9] was 0% each time.

`COc1cccc(-n2c3nc(=O)n(C)c(=O)c-3nc3ccccc32)c1`: the Cured in [14], in test [6], in [7] and in test [9] was 0% throughout. The Mean survival days in [15], in test [10], in test [4] and in [13] was 0 days throughout.

As to `CN(C)c1ccc(-n2c3nc(=O)n(C)c(=O)c-3nc3ccccc32)cc1`, the Cured in [14], in [6] and in test [9] was 0% in each case. The Mean survival days in [10], in [4] and in test [13] was 0 days each time.

Take `Cn1c(=O)nc2n(-c3ccc(C(F)(F)F)cc3)c3ccccc3nc-2c1=O`: the Cured in test [14] worked out at 100%; in [20], 100%; in [11] it was 100%; in test [6], 0%; in test [7] it was 80%; in [9] it was 0%. Besides, the Mean survival days in test [15] amounted to 0 days; in test [10] it was 0 days; in test [13], 2 days. In [8], this compound had an ED40 of 135 µmol/kg.

As to `Cn1c(=O)nc2n(-c3ccc(Cl)c(Cl)c3)c3ccccc3nc-2c1=O`, the Mean survival days in test [10], in test [4], in test [12] and in [13] was 0 days in each case. Besides, the Cured in [5], in test [6], in test [21] and in [9] was 0% each time.

In the case of `Cn1c(=O)nc2n(-c3ccc(O)cc3)c3ccccc3nc-2c1=O`, the Cured in [14], in test [6] and in test [9] was 0% throughout. Also, the figures for the Mean survival days in test [10], in test [4] and in test [13] were 0 days, 0 days and 0.2 days, respectively.

For the compound `Cn1c(=O)nc2n(-c3cc(C(F)(F)F)ccc3Cl)c3ccccc3nc-2c1=O`, the Mean survival days in [16] is -0.4 days; in [15], 0 days; in [10], 0 days; in test [18], 0 days; in [19] it was 0.2 days. The Cured in [3], in test [22], in test [6], in test [7] and in test [9] was 0% in each case.

Take `Cc1cc(Cl)ccc1-n1c2nc(=O)n(C)c(=O)c-2nc2ccccc21`: the Mean survival days is -2 days in test [16], 1.2 days in [15], 0 days in [10] and -1.5 days in [18]. For the same compound, the Cured in test [2], in test [6], in [7] and in test [9] was 0% throughout.

With `Cn1c(=O)nc2n(-c3ccc(Cl)c(C(F)(F)F)c3)c3ccccc3nc-2c1=O`, the Cured in [14], in test [3], in test [6], in [7] and in [9] was 0% throughout. For the same compound, the Mean survival days was found to be 0 days in test [15]; 0 days in test [10]; 0.2 days in test [4]; 0 days in [13]; 0 days in test [19].

As to `Cn1c(=O)nc2n(-c3cccc(Cl)c3)c3ccccc3nc-2c1=O`, the Cured in [14] is recorded as 100%; in test [20], 50%; in test [11], 0%; in [7], 0%; in [9] it was 0%. Besides, the Mean survival days was found to be 0 days in test [10], 0.4 days in test [12], 0 days in test [13] and 0.5 days in [23].

`Cn1c(=O)nc2n(-c3ccc(C#N)cc3)c3ccccc3nc-2c1=O`: the Cured in test [24], in test [25] and in test [5] was 0% throughout. The Mean survival days in test [10], in [4] and in [13] was 0 days each time.
